Literature values in patent publication US20090023700A1, “NEUROPROTECTIVE TREATMENTS” (University of Louisville Research Foundation, priority 2007, published 2009).

Test system: AP1
Conditions: macrophages; cited from earlier work

## O=C(O)c1ccccn1.OO.OO.[K+].[K+].[O]=[V] [bpV(pic), potassium bisperoxo(pyridine-2-carboxylato)oxovanadate(V)]
  AP1 activation: does not
